Assay results reported in ChEMBL document CHEMBL1154733, “Synthesis and in vitro opioid receptor functional antagonism of methyl-substituted analogues of (3R)-7-hydroxy-N-[(1S)-1-{[(3R,4R)-4-(3-hydroxyphenyl)-3,4-dimethyl-1-piperidinyl]methyl}-2-methylpropyl]-1,2,3,4-tetrahydro-3-isoquinolinecarboxamide (JDTic)” (J Med Chem, 2009).

Experiments:
[1] = target: Mu-type opioid receptor (Homo sapiens) (UniProt P35372); experiment: Ratio of JDTic Ke to compound Ke for human cloned mu opioid receptor expressed in CHO cells; assay type: cell-based
Mu-type opioid receptor (Homo sapiens), sequence (P35372 whole entry): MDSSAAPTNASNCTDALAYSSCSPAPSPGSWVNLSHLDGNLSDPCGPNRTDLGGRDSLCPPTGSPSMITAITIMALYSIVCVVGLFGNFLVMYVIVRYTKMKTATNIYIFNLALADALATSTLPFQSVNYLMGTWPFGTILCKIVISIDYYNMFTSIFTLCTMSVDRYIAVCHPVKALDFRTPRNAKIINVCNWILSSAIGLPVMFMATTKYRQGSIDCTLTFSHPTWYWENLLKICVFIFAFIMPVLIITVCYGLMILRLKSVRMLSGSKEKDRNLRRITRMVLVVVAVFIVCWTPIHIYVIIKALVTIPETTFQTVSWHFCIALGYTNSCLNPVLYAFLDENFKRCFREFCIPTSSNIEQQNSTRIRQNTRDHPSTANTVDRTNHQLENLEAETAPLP

Homo sapiens [2] = organism: Homo sapiens; experiment: Ratio of Ke for human cloned mu opioid receptor to Ke for human cloned kappa opioid receptor
Homo sapiens [3] = organism: Homo sapiens; experiment: Ratio of Ke for human cloned delta opioid receptor to Ke for human cloned kappa opioid receptor
[4] = target: Kappa-type opioid receptor (Homo sapiens) (UniProt P41145); experiment: Antagonist activity at human cloned kappa opioid receptor expressed in CHO cells assessed as inhibition of U69593-stimulated [35S]GTPgammaS binding; assay type: functional, cell-based
Kappa-type opioid receptor (Homo sapiens), sequence (P41145 whole entry): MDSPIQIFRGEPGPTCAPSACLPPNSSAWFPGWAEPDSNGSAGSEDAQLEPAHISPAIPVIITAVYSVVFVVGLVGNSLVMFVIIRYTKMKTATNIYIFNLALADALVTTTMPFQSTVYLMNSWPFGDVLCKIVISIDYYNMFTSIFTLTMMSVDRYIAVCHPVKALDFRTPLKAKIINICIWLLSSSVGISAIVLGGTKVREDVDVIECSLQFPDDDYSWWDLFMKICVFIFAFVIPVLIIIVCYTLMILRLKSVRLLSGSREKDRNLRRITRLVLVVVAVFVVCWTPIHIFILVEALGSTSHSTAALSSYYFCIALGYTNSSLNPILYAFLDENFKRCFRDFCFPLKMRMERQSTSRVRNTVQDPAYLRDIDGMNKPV

[5] = target: Mu-type opioid receptor (Homo sapiens) (UniProt P35372); experiment: Antagonist activity at human cloned mu opioid receptor expressed in CHO cells assessed as inhibition of DAMGO-stimulated [35S]GTPgammaS binding; assay type: functional, cell-based
[6] = target: Delta-type opioid receptor (Homo sapiens) (UniProt P41143); experiment: Antagonist activity at human cloned delta opioid receptor expressed in CHO cells assessed as inhibition of DPDPE-stimulated [35S]GTPgammaS binding; assay type: functional, cell-based
Delta-type opioid receptor (Homo sapiens), sequence (P41143 whole entry): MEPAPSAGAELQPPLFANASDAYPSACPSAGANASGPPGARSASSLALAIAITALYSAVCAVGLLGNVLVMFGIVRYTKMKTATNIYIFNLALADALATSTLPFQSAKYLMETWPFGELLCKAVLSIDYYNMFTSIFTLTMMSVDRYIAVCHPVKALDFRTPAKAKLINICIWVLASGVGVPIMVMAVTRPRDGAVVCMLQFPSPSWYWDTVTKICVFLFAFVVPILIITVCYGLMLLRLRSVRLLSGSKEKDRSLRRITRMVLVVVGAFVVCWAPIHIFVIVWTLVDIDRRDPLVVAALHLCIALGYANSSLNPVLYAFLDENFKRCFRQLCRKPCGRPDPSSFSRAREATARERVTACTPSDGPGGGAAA

[7] = target: Kappa-type opioid receptor (Homo sapiens) (UniProt P41145); experiment: Ratio of compound Ke to JDTic Ke for human cloned kappa opioid receptor expressed in CHO cells; assay type: cell-based

SMILES | Ratio Ke [1] | Ratio Ke (Homo sapiens [2]) | Ratio Ke (Homo sapiens [3]) | Ke [4] [nM] | Ke [5] [nM] | Ke [6] [nM] | Ratio Ke [7]
CC[C@H](C)[C@@H](CN1CC[C@@](C)(c2cccc(O)c2)[C@@H](C)C1)NC(=O)[C@H]1Cc2ccc(O)cc2CN1 | 8 | 100 | 800 | – | – | – | –
CC(C)[C@@H](CN1CC[C@@](C)(c2cccc(O)c2)[C@@H](C)C1)NC(=O)[C@H]1Cc2ccc(O)cc2CN1C | – | 1310 | 3070 | 0.16 | 210 | 491 | –
COc1ccc2c(c1)CN(C)[C@@](C)(C(=O)N[C@H](CN1CC[C@@](C)(c3cccc(O)c3)[C@@H](C)C1)C(C)C)C2 | – | – | – | 2.2 | 7 | – | –
CC[C@H](C)[C@@H](CN1CC[C@@](C)(c2cccc(OC)c2)[C@@H](C)C1)NC(=O)[C@H]1Cc2ccc(O)cc2CN1 | – | – | – | 0.96 | 5.1 | – | –
CC[C@H](C)[C@@H](CN1CC[C@@](C)(c2cccc(OC)c2)[C@@H](C)C1)NC(=O)[C@@]1(C)Cc2ccc(O)cc2CN1 | – | – | – | 0.52 | – | 2100 | –
CC[C@H](C)[C@@H](CN1CC[C@@](C)(c2cccc(O)c2)[C@@H](C)C1)NC(=O)[C@H]1Cc2ccc(O)cc2CN1C | – | 66 | 1200 | 0.11 | 7.2 | 132 | –
COc1cccc([C@]2(C)CCN(C[C@@H](NC(=O)[C@H]3Cc4ccc(O)cc4CN3)C(C)C)C[C@@H]2C)c1 | – | 649 | 573 | 0.037 | 24 | 21.2 | 2
COc1ccc2c(c1)CN[C@@](C)(C(=O)N[C@H](CN1CC[C@@](C)(c3cccc(O)c3)[C@@H](C)C1)C(C)C)C2 | – | 4 | 40 | 0.93 | 3.8 | 36.8 | –
COc1ccc2c(c1)CN[C@@H](C(=O)N[C@H](CN1CC[C@@](C)(c3cccc(O)c3)[C@@H](C)C1)C(C)C)C2 | – | 857 | 1970 | – | – | – | 3
CC(C)[C@@H](CN1CC[C@@](C)(c2cccc(O)c2)[C@@H](C)C1)NC(=O)[C@@]1(C)Cc2ccc(O)cc2CN1 | – | 120 | 28500 | 0.03 | 3.6 | 854 | –
COc1cccc([C@]2(C)CCN(C[C@@H](NC(=O)[C@@]3(C)Cc4ccc(O)cc4CN3)C(C)C)C[C@@H]2C)c1 | – | – | – | 0.26 | – | 2200 | –
COc1cccc([C@]2(C)CCN(C[C@@H](NC(=O)[C@H]3Cc4ccc(O)cc4CN3C)C(C)C)C[C@@H]2C)c1 | – | 204 | 535 | 4.3 | 880 | 2300 | –
CC[C@H](C)[C@@H](CN1CC[C@@](C)(c2cccc(OC)c2)[C@@H](C)C1)NC(=O)[C@H]1Cc2ccc(O)cc2CN1C | – | 180 | – | 2.03 | 360 | > 10000 | –
COc1cccc([C@]2(C)CCN(C[C@@H](NC(=O)[C@@]3(C)Cc4ccc(OC)cc4CN3)C(C)C)C[C@@H]2C)c1 | – | – | – | 15.2 | – | > 10000 | –
CC[C@H](C)[C@@H](CN1CC[C@@](C)(c2cccc(O)c2)[C@@H](C)C1)NC(=O)[C@@]1(C)Cc2ccc(O)cc2CN1 | – | – | – | 0.11 | 8.7 | – | –
CC[C@H](C)[C@@H](CN1CC[C@@](C)(c2cccc(O)c2)[C@@H](C)C1)NC(=O)[C@@]1(C)Cc2ccc(OC)cc2CN1 | – | 5 | 5 | 3.5 | 17.5 | 18.7 | –
CC(C)[C@@H](CN1CC[C@@](C)(c2cccc(O)c2)[C@@H](C)C1)NC(=O)[C@H]1Cc2ccc(O)cc2CN1 | – | 1260 | 3830 | – | – | – | –
